# Values quoted from earlier work in patent publication US10835532B2, “Muscarinic agonists as cognitive enhancers” (The University of Toledo, priority 2008, dated 2020).
# System: Alzheimer's subjects
# Settings: cited from earlier work
compound,measurement,setting,value
CCCCCCOc1nsnc1C1=CCCN(C)C1 [xanomeline],"Side effects associated with activation of M3 receptors (salivation, diarrhea and profuse sweating)","Alzheimer's subjects, limited subject compliance",produced unwanted side effects
same,Psychiatric symptoms such as hallucinations,phase II clinical trials in Alzheimer's subjects,significantly improved
